# According to patent publication US8163745B2, “HIV inhibiting 5-(hydroxymethylene and aminomethylene) substituted pyrimidines” (Tibotec Pharmaceuticals Ltd., priority 2006, dated 2012):
# Like-named read-outs stand apart in the source and are kept apart here.
# Assays:
# [1] = system: wild type HIV strain IIIB; test: Cellular anti-HIV assay in MT4 LTR-EGFP cells (GFP fluorescence), strain IIIB; cytotoxicity in mock-infected MT4 CMV-EGFP cells for the selectivity index; type: cell-based, HIV-1; settings: for EC50: read-out: IIIB (pEC50) (converted)
# Experimental: (§1) The antiviral activity of the compound of the present invention has been evaluated in the presence of wild type HIV and HIV mutants bearing mutations at the reverse transcriptase gene. The activity of the compounds is evaluated using a cellular assay which was performed according to the following procedure.
# (§2) The human T-cell line MT4 is engineered with Green Fluorescent Protein (GFP) and an HIV-specific promoter, HIV-1 long terminal repeat (LTR). This cell line is designated MT4 LTR-EGFP, and can be used for the in vitro evaluation of anti-HIV activity of investigational compounds. In HIV-1 infected cells, the Tat protein is produced which upregulates the LTR promotor and finally leads to stimulation of the GFP reporter production, allowing to measure ongoing HIV-infection fluorometrically.
# Analogously, MT4 cells are engineered with GFP and the constitutional cytomegalovirus (CMV) promotor. This cell line is designated MT4 CMV-EGFP, and can be used for the in vitro evaluation of cytotoxicity of investigational compounds. In this cell line, GFP levels are comparably to those of infected MT4 LTR-EGFP cells. Cytotoxic investigational compounds reduce GFP levels of mock-infected MT4 CMV-EGFP cells.
# (§3) Effective concentration values such as 50% effective concentration (EC50) can be determined and are usually expressed in μM. An EC50 value is defined as the concentration of test compound that reduces the fluorescence of HIV-infected cells by 50%. The 50% cytotoxic concentration (CC50 in μM) is defined as the concentration of test compound that reduces fluorescence of the mock-infected cells by 50%. The ratio of CC50 to EC50 is defined as the selectivity index (SI) and is an indication of the selectivity of the anti-HIV activity of the inhibitor. The ultimate monitoring of HIV-1 infection and cytotoxicity is done using a scanning microscope. Image analysis allows very sensitive detection of viral infection. Measurements are done before cell necrosis, which usually takes place about five days after infection, in particular measurements are performed three days after infection.
# (§4) The columns IIIB, L100I, etc. in the table list the pEC50 values against various strains IIIB, L100I, etc.
# Strain IIIB is wild type HIV strain.
# [2] = system: HIV mutant strain L100I + K103N; test: microbe, parasite or virus in culture; type: cell-based, HIV-1; settings: MT4 LTR-EGFP cells, measured three days after infection; for EC50: Human immunodeficiency virus 1, 72 h, read-out: L100I + K103N (pEC50), strain L100I + K103N (converted); for L100I + K103N (pEC50): strain L100I + K103N
# Experimental: as §1, §2, §3, §4
# [3] = system: HIV mutant strain Y181C; test: microbe, parasite or virus in culture; type: cell-based, HIV-1; settings: MT4 LTR-EGFP cells, measured three days after infection; for EC50: Human immunodeficiency virus 1, 72 h, read-out: Y181C (pEC50), strain Y181C (converted); for Y181C (pEC50): strain Y181C
# Experimental: as §1, §2, §3, §4
# [4] = system: HIV mutant strain K103N + Y181C; test: microbe, parasite or virus in culture; type: cell-based, HIV-1; settings: MT4 LTR-EGFP cells, measured three days after infection; for EC50: Human immunodeficiency virus 1, 72 h, read-out: K103N + Y181C (pEC50), strain K103N + Y181C (converted); for K103N + Y181C (pEC50): strain K103N + Y181C
# Experimental: as §1, §2, §3, §4
# [5] = system: HIV strain MDR (mutations L100I, K103N, Y181C, E138G, V1791, L2214F, V278V/I and A327A/V in HIV reverse transcriptase); test: microbe, parasite or virus in culture; type: cell-based, HIV-1; settings: MT4 LTR-EGFP cells, measured three days after infection; for EC50: Human immunodeficiency virus 1, 72 h, read-out: MDR (pEC50), MDR strain (converted); for MDR (pEC50): MDR strain
# Experimental: as §1, §2, §3, §4
# “MDR” refers to a strain that contains mutations L100I, K103N, Y181C, E138G, V1791, L2214F, V278V/I and A327A/V in HIV reverse transcriptase.
# [6] = Human immunodeficiency virus 1, IIIB, 72 h, wild type HIV strain IIIB, MT4 LTR-EGFP cells, measured three days after infection
# [7] = wild type HIV strain IIIB, MT4 LTR-EGFP cells, measured three days after infection
Compound,"EC50 [1, 6]",EC50 [2],EC50 [3],EC50 [4],EC50 [5],"IIIB (pEC50) [1, 7]",L100I + K103N (pEC50) [2],Y181C (pEC50) [3],K103N + Y181C (pEC50) [4],MDR (pEC50) [5],IIIB (pEC50) [1],melting point,"EC50 ([1]; Human immunodeficiency virus 1, 72 h, wild type HIV strain IIIB, MT4 LTR-EGFP cells, measured three days after infection)"
Cc1cc(/C=C/C#N)cc(C)c1Nc1nc(Nc2ccc(C#N)cc2)ncc1C(O)c1nccn1C (centres unmarked) [Compound 11],2.57 nM,3.72 nM,6.03 nM,7.24 nM,832 nM,–,–,–,–,–,–,–,–
Cc1cc(/C=C/C#N)cc(C)c1Nc1nc(Nc2ccc(C#N)cc2)ncc1C(O)(c1nccs1)c1nccs1 [Compound 21],18.2 nM,23.4 nM,56.2 nM,85.1 nM,3310 nM,–,–,–,–,–,–,–,–
Cc1cc(/C=C/C#N)cc(C)c1Nc1nc(Nc2ccc(C#N)cc2)ncc1C(O)c1csc2nc(Cl)cn12 (centres unmarked) [Compound 18],18.2 nM,30.9 nM,79.4 nM,107 nM,2190 nM,–,–,–,–,–,–,–,–
Cc1csc(C(O)c2cnc(Nc3ccc(C#N)cc3)nc2Nc2c(C)cc(/C=C/C#N)cc2C)n1 (centres unmarked) [Compound 8],3.89 nM,4.27 nM,14.5 nM,9.55 nM,209 nM,–,–,–,–,–,–,–,–
Cc1cc(/C=C/C#N)cc(C)c1Nc1nc(Nc2ccc(C#N)cc2)ncc1C(C)(O)c1nccs1 (centres unmarked) [Compound 25],–,–,–,–,–,7.75,7.85,7.74,7.62,6.40,–,–,–
CCC(O)(c1nccs1)c1cnc(Nc2ccc(C#N)cc2)nc1Nc1c(C)cc(/C=C/C#N)cc1C (centres unmarked) [Compound 22],–,–,–,–,–,7.75,7.51,7.21,7.03,5.66,–,–,–
COc1ccccc1C(O)c1cnc(Nc2ccc(C#N)cc2)nc1Nc1c(C)cc(/C=C/C#N)cc1C (centres unmarked) [Compound 5],4.07 nM,8.51 nM,8.51 nM,18.6 nM,646 nM,–,–,–,–,–,–,–,–
C=CC(O)(c1nccs1)c1cnc(Nc2ccc(C#N)cc2)nc1Nc1c(C)cc(/C=C/C#N)cc1C (centres unmarked) [Compound 27],–,–,–,–,–,–,7.84,7.70,7.54,6.27,7.70,–,–
Cc1cc(/C=C/C#N)cc(C)c1Nc1nc(Nc2ccc(C#N)cc2)ncc1C(O)c1ccccn1 (centres unmarked) [Compound 2],–,3.47 nM,8.51 nM,3.24 nM,813 nM,–,–,–,–,–,–,244 °C,3.47 nM
Cc1cc(/C=C/C#N)cc(C)c1Nc1nc(Nc2ccc(C#N)cc2)ncc1C(O)c1cccnc1 (centres unmarked) [Compound 4],1.78 nM,3.47 nM,5.37 nM,5.75 nM,355 nM,–,–,–,–,–,–,–,–
Cc1cc(/C=C/C#N)cc(C)c1Nc1nc(Nc2ccc(C#N)cc2)ncc1C(O)(c1nccs1)C(C)C (centres unmarked) [Compound 26],–,–,–,–,–,7.00,6.33,6.66,6.24,5.12,–,–,–
Cc1csc(CC(O)c2cnc(Nc3ccc(C#N)cc3)nc2Nc2c(C)cc(/C=C/C#N)cc2C)n1 (centres unmarked) [Compound 6],3.72 nM,18.6 nM,24.5 nM,95.5 nM,2240 nM,–,–,–,–,–,–,–,–
Cc1cc(/C=C/C#N)cc(C)c1Nc1nc(Nc2ccc(C#N)cc2)ncc1C(O)c1nc2ccccc2s1 (centres unmarked) [Compound 14],12.6 nM,70.8 nM,75.9 nM,100 nM,6310 nM,–,–,–,–,–,–,–,–
Cc1cc(/C=C/C#N)cc(C)c1Nc1nc(Nc2ccc(C#N)cc2)ncc1C(O)C1CCCC1 (centres unmarked) [Compound 9],17 nM,158 nM,245 nM,759 nM,6610 nM,–,–,–,–,–,–,–,–
C=CC(O)c1cnc(Nc2ccc(C#N)cc2)nc1Nc1c(C)cc(/C=C/C#N)cc1C (centres unmarked) [Compound 12],–,–,–,–,–,8.91,8.86,8.44,8.38,6.37,–,–,–
Cc1cc(/C=C/C#N)cc(C)c1Nc1nc(Nc2ccc(C#N)cc2)ncc1C(O)c1scnc1Br (centres unmarked) [Compound 15],6.76 nM,7.76 nM,17.8 nM,18.2 nM,468 nM,–,–,–,–,–,–,–,–
Cc1cnc(C(O)c2cnc(Nc3ccc(C#N)cc3)nc2Nc2c(C)cc(/C=C/C#N)cc2C)s1 (centres unmarked) [Compound 7],11.5 nM,14.8 nM,21.4 nM,47.9 nM,1620 nM,–,–,–,–,–,–,–,–
Cc1cc(/C=C/C#N)cc(C)c1Nc1nc(Nc2ccc(C#N)cc2)ncc1C(O)c1cn2ccnc2s1 (centres unmarked) [Compound 16],25.1 nM,63.1 nM,89.1 nM,95.5 nM,7240 nM,–,–,–,–,–,–,–,–
Cc1cc(/C=C/C#N)cc(C)c1Nc1nc(Nc2ccc(C#N)cc2)ncc1C(O)C#Cc1cncn1C (centres unmarked) [Compound 13],3.63 nM,63.1 nM,19.5 nM,38.9 nM,537 nM,–,–,–,–,–,–,–,–
Cc1cc(/C=C/C#N)cc(C)c1Nc1nc(Nc2ccc(C#N)cc2)ncc1C(O)c1cncs1 (centres unmarked) [Compound 10],3.02 nM,2.63 nM,3.8 nM,4.07 nM,145 nM,–,–,–,–,–,–,–,–
